Data on 21 compounds can be found in ChEMBL document CHEMBL1201862, “PubChem BioAssay data set” (2004).

Activity calls are given as the source filed them.

The IC50 is the concentration at which inhibition is half-maximal. The term EC50 denotes the concentration at which the effect is half-maximal. In general, AC50 refers to the midpoint of the concentration-response curve, whichever way the signal moves.

Test [1] has as its target T1, Calpain-2 catalytic subunit (Sus scrofa, UniProt P43367).
T1 sequence (P43367 whole entry): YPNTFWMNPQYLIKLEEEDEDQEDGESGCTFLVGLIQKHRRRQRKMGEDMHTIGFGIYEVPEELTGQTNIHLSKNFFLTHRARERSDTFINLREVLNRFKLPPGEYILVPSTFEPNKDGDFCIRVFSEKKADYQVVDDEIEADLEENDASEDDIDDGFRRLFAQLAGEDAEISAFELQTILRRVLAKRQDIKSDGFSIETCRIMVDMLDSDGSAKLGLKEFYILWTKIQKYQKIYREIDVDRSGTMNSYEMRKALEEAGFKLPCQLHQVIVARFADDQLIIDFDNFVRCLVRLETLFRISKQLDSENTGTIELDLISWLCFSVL
Kind of test: m-calpain protease blockers, concentration series – biochemical, fluorogenic peptide substrate, dose response (AID 1420). Format: functional.

The nature of test [2]: DRD fibroblast viability loss – cell-based, non-viral oncogenic, luminescence, dose response (AID 1934). Format: functional. To be noted: Homo sapiens.
Test [3] relates to BJ. Kind of test: cells. Format: functional, cell-based. To be noted: Homo sapiens.
Test [4] deals with BJ. The test is described as follows: BJ-TERT fibroblast viability loss – cell-based, RAS-independent, luminescence, dose response (AID 1933). In kind it is functional. The note with it: Homo sapiens.
The subject of test [5] is BJ. Kind of test: BJ-TERT-LT-ST fibroblast viability loss – cell-based, RAS-independent, luminescence, dose response (AID 1935).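 Further: BJ fibroblasts immortalized with TERT plus LT and ST oncogenes.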 Format: functional. The note with it: Homo sapiens.
Test [6] in a line: NIH-3T3 fibroblast cytotoxicity, dose response, cytotoxicity control, cell-based, fluorescence, Alamar Blue, secondary assay (AID 2327).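 Further: NIH-3T3 mouse fibroblasts cultured with fluconazole at 8 µg/mL.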 Format: functional. Background: The colour change of resazurin is a common sign of viable cells or microbes.
Test [7] can be described thus: fluconazole-exposed Candida albicans growth modulators – fluorescence, retest, confirmation (AID 2467). Format: functional, cell-based.
The nature of test [8]: Luminescence Cell-Based Dose Retest to Confirm Inhibitors of Cancer Stem Cells. [Related pubchem assays (depositor defined):AID2717, AID2721]. Format: functional. The note with it: Homo sapiens.
The target of test [9] is T2, Heat shock factor protein 1 (Mus musculus, UniProt P38532).
T2 sequence (P38532 whole entry): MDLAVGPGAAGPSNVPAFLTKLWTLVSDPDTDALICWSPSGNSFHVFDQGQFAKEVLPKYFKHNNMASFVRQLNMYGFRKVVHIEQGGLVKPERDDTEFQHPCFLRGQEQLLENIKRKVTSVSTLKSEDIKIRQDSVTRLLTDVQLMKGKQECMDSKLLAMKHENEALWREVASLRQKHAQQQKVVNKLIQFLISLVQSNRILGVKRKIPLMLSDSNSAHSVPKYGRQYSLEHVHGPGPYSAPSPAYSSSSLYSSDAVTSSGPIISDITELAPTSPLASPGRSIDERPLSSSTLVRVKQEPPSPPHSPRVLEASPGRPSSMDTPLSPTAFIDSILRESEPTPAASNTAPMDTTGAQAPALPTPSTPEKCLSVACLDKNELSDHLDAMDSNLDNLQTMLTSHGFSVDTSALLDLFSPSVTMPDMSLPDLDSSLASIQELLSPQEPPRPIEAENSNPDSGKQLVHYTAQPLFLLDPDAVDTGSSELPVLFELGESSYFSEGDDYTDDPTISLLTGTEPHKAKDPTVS
The test is described as follows: enhancement of HSF1-driven luciferase signal – cell-based, NIH3T3, luminescence, dose retest, confirmation (AID 435004).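 Further: stress induced by proteasome inhibitor MG132 added 30 min after compound; luciferase reporter driven by HSF1 response element in NIH3T3 cells; actives raise luminescence as potentiators of the MG132 stress response.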 In kind it is functional.

The target of a further test is Fatty acid synthase (Homo sapiens, UniProt P49327). Kind of test: inhibition of human FAS-TE enzyme activity – biochemical, kinetic fluorescence intensity, dose response (AID 624326).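 Further: rate of fluorescence rise from hydrolysis of a fluorogenic O-methyl fluorescein ester substrate.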 Format: functional.
Test [10] in a line: blockers of HIV-1 envelope-mediated cell-cell fusion – cherry-pick, dose response (AID 652057). In kind it is functional, cell-based.
Test [11] is described as follows: blockers of HIV-1 ZM109 envelope-driven cell-cell fusion – HeLa effector, CEM target cells, luciferase, cherry-pick, dose response (AID 652058).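 Further: luciferase signal from HIV-1 Env mediated cell-cell fusion of effector and target cells.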 In kind it is functional, cell-based.
Test [12] is described as follows: HIV-1 AD8 envelope cell-cell fusion blockers – cherry-pick, dose response (AID 652062).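 Further: luciferase signal from cell-cell fusion driven by HIV-1 clade B AD8 Env; potency is for inhibitors of fusion seen as a drop in luminescence.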 Format: functional, cell-based.

Chain of Fatty acid synthase (P49327 whole entry, the tested form may be a part): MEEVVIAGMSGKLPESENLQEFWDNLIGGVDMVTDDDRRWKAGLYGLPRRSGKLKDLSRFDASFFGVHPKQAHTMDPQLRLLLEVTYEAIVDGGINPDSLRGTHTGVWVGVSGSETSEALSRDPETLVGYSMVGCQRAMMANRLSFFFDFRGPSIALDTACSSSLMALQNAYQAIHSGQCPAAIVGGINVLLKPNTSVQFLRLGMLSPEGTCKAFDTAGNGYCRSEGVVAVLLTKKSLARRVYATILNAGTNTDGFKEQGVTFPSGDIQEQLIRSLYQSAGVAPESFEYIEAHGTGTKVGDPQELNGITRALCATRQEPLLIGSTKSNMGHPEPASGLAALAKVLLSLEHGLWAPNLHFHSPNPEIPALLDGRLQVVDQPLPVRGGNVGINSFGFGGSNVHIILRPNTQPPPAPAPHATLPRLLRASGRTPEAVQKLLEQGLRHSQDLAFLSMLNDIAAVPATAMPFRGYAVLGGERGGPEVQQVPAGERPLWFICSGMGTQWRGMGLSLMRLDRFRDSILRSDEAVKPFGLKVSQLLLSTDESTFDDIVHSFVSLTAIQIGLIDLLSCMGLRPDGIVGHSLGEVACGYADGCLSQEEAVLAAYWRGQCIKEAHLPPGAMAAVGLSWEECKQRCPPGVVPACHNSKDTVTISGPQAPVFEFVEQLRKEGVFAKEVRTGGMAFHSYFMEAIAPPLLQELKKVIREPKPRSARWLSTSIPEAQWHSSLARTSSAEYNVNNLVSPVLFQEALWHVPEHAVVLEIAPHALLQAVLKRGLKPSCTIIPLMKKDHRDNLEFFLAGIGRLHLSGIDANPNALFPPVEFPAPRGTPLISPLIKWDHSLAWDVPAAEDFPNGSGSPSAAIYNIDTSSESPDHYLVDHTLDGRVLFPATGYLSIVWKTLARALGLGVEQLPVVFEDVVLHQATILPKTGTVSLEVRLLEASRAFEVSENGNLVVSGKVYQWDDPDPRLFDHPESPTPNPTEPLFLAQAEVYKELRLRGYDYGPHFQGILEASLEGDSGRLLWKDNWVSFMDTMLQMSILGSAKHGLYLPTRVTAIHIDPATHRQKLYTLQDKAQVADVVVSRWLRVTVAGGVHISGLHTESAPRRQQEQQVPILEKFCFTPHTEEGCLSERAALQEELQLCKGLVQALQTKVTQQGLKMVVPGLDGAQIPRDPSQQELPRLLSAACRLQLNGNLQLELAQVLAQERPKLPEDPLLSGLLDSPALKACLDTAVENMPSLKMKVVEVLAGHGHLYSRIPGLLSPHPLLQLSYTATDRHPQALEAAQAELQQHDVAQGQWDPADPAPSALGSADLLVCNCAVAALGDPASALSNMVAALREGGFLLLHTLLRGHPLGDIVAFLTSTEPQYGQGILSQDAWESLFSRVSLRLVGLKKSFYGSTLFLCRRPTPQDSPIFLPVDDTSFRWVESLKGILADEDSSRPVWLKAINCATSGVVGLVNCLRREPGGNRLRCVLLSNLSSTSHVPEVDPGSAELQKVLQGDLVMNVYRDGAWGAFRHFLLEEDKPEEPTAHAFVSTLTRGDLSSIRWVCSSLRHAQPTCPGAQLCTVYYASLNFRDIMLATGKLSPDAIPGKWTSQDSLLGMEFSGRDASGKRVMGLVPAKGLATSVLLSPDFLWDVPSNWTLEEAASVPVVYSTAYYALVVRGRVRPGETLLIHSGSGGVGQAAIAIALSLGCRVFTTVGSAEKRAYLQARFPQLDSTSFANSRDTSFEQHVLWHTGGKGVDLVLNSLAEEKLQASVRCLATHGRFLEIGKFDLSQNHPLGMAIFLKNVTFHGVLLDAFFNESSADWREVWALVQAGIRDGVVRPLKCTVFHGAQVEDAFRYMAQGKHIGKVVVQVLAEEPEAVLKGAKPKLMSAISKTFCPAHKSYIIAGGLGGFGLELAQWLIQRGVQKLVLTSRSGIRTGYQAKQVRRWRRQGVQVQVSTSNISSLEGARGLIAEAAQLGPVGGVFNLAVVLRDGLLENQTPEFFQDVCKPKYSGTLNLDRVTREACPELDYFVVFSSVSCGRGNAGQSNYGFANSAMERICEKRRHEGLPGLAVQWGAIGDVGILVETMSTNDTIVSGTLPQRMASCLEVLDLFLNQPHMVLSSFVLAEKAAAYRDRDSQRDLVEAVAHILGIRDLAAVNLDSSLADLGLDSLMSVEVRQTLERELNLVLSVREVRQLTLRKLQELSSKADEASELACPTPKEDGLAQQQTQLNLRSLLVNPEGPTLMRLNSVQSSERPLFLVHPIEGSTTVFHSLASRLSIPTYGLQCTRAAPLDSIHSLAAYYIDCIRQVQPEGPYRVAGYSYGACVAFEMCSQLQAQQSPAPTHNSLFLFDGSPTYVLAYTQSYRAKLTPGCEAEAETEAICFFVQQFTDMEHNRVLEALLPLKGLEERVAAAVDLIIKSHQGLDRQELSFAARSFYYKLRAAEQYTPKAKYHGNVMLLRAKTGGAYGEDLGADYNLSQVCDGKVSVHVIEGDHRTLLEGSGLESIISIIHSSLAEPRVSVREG

`Nn1c(Cc2cccc3ccccc23)nnc1SCc1ccc(Cl)c(Cl)c1`: the half-maximal inhibitory concentration (IC50) in test [1] was < 0.4 µM (not active).

Regarding `Cc1cc2cc(CN=C(S)NC3CCCCC3)ccc2[nH]1`, the half-inhibitory concentration (IC50) in [1] was 34.6 µM (not active).

In the case of `COc1ccc(-n2c(SCC(=O)Nc3ncc(Cl)cc3Cl)nc3ccccc32)cc1`, the EC50 in test [2] was 137 µM (active); in the test on BJ [3] it was 139 µM (active); with BJ [4], 27.8 µM (active); with BJ [5], > 150 µM (inconclusive).

Consider `Cc1ccc2cc(CCNC(=O)c3cc4ccccc4o3)c(O)nc2c1C`, for which the IC50 in test [1] is on record as > 50 µM (not active).

With `CCN1/C(=C\C=C2\C(=O)N(c3ccccc3)C(=S)N2C)Sc2ccccc21`, the 50% inhibitory concentration (IC50) in test [1] is > 50 µM (not active).

With `Brc1ccc(-c2nnc3sc(CN4CCN(c5ccccc5)CC4)cn23)cc1`, the EC50 was > 150 µM (inactive) in test [6]; > 150 µM (not active) in test [2]; > 150 µM (not active) with BJ [3]; 2.14 µM (active) in test [7]; > 150 µM (not active) in the test on BJ [4]; > 150 µM (not active) in the test on BJ [5].

For `CC(C)Cn1c(S)nnc1-c1csc(C(C)C)c1`, the IC50 in [1] is 10.8 µM (active).

Take `CSc1nc(Oc2ccccc2)c2sccc2n1`: the IC50 in test [1] is < 0.4 µM (not active).

Turning to `COc1ccc(/C=C(\C#N)c2c[nH]c3ccccc23)cc1`, the EC50 is 0.441 µM (active) in [2]; 20 µM (inconclusive) with BJ [3]; 0.706 µM (inconclusive) in the test on BJ [4]; 1.76 µM (inconclusive) with BJ [5]; 39.2 µM (active) in test [9]. Further, in test [8], the AC50 is 0.203 µM (active).

On to `COc1ccc(-c2cc(C(=O)N3CCCc4ccccc43)no2)cc1`, for which the half-maximal inhibitory concentration (IC50) in test [1] is 13.4 µM (not active).

On to `CCOc1ccc(CC(=O)OCn2nnc3ccccc3c2=O)cc1`, for which the IC50 in [1] is 24.4 µM (not active).

As to `CCc1ccc(NC(=O)c2noc(C(C)C)c2[N+](=O)[O-])cc1`, the concentration for half-maximal inhibition (IC50) in test [1] was 6.83 µM (not active).

As for `CCC(C)C(NC(=O)c1ccc(Cl)cc1)C(=O)Nc1cccnc1` (stereo not drawn), in test [1], the IC50 is listed as 7.69 µM (not active).

For the compound `O=C(Nc1cccc2ccccc12)/C(Cl)=C/c1ccccc1`, the IC50 in test [1] is reported as 8.93 µM (not active).

In the case of `O=C(CCCCCN1C(=O)c2ccccc2C1=O)Nc1ccc(F)cc1`, the IC50 in [1] is on record as 11.1 µM (not active).

On to `O=C(Cc1ccc(N2CCNC2=O)cc1)N1CCCC(Nc2ccc(F)c(F)c2)C1` (stereo not drawn), for which the EC50 in [2] was 14.9 µM (inconclusive); in the test with BJ [3], 3.98 µM (active); with BJ [4] it was 9.17 µM (inconclusive); in the test with BJ [5], 4.14 µM (active).

Regarding `O=C1OC(c2cccc([N+](=O)[O-])c2)C2(CCCC2)C(=O)C12CCCCC2` (stereo not drawn), in test [1], the half-inhibitory concentration (IC50) is > 50 µM (not active).

Take `CNS(=O)(=O)c1ccc2c(c1)C(=O)c1cc(S(=O)(=O)NC)ccc1CC2`: the IC50 on Fatty acid synthase was 0.865 µM (active).

Consider `C[C@@H]1CN([C@H](C)CO)S(=O)(=O)c2ccc(-c3cccc(F)c3)cc2O[C@@H]1CN(C)S(=O)(=O)c1ccccc1`, for which the values for the concentration at half-maximal activity (AC50) in test [10], in [11] and in test [12] were 3.28 µM (active), 2.78 µM (active) and 31.6 µM (active), respectively.

As for `C[C@H]1CN([C@@H](C)CO)S(=O)(=O)c2ccc(Br)cc2O[C@H]1CN(C)S(=O)(=O)c1ccc(F)cc1`, the values for the AC50 in test [10], in test [11] and in test [12] were 2.84 µM (active), 3.04 µM (active) and 29.7 µM (active), respectively.

Regarding `CO[C@H]1CN(C)C(=O)c2ccc(NC(=O)C3CCC3)cc2OC[C@@H](C)N(CC2CCCCC2)C[C@@H]1C`, the concentration at half-maximal activity (AC50) is 10.1 µM (active) in test [10], 3.18 µM (active) in test [11] and 19.9 µM (active) in [12].
